The experiment has as its target NLRP3 (Homo sapiens, UniProt Q96P20). As to the kind of experiment: THP-1 cells pyroptosis assay. The note with it: LPS 1.0 μg/ml, nigericin 5 μM, resazurin readout, 10 μM top dose (Example 2: top dose of 30 μM). More on the design: Seed THP-1 cells (25,000 cells/well) containing 1.0 μg/ml LPS; host or cells: THP-1. The class given is cell-based. The procedure, abridged: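 THP-1 cells (25,000/well) primed with 1 μg/ml LPS in serum-free RPMI, treated with compound (8-point dilution, 10 μM top unless stated; 0.1% DMSO) 3 h at 37°C, then nigericin 5 μM 1 h. Viability read by resazurin (100 μM, 1-2 h) fluorescence; IC50 from 4-parameter fit.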
Background: The colour change of resazurin is a common sign of viable cells or microbes.

The structures appear in SMILES notation.

Chain of NLRP3 (Q96P20 whole entry): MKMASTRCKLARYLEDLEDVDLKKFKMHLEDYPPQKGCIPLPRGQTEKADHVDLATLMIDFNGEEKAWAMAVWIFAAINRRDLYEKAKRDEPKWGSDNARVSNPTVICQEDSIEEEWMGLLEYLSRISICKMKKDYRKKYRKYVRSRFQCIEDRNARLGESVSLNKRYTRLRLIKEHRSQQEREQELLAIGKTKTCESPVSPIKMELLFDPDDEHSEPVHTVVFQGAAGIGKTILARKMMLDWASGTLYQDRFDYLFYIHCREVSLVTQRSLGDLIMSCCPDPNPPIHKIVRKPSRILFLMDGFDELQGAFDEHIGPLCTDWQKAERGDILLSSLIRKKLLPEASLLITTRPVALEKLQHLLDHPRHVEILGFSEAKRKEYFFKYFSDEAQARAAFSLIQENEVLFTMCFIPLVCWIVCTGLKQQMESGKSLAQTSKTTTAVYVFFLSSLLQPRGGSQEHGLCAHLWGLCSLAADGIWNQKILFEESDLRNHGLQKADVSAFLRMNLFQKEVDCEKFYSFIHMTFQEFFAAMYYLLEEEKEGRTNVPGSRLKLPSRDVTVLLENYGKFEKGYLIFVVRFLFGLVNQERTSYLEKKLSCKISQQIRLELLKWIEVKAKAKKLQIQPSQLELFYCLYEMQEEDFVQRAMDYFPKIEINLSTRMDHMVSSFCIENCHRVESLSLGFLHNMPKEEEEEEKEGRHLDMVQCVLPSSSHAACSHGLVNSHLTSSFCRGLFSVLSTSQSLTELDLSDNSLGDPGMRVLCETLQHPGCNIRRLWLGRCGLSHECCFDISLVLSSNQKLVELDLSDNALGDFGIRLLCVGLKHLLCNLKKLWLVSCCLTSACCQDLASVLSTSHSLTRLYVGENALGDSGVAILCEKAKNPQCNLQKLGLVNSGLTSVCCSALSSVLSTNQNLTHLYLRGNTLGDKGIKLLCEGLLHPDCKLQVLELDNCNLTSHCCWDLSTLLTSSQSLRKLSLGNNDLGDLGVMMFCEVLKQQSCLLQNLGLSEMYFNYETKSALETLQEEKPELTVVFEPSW

Take `CN1CCC[C@H](NS(=O)(=O)c2nnc(Nc3c4c(cc5c3CCC5)CCC4)[nH]2)C1` [Example 105, (S)-5-((1,2,3,5,6,7-hexahydro-s-indacen-4-yl)amino)-N-(1-methylpiperidin-3-yl)-4H-1,2,4-triazole-3-sulfonamide]: the IC50 (in general, the midpoint of a concentration-inhibition curve) was not above 5 µM.

Take `O=S(=O)(CCCNC1CC1)c1nnc(Nc2c3c(cc4c2CCC4)CCC3)[nH]1` [Example 56, 5-((3-(cyclopropylamino)propyl)sulfonyl)-N-(1,2,3,5,6,7-hexahydro-s-indacen-4-yl)-4H-1,2,4-triazol-3-amine]: the IC50 was not above 5 µM.

On to `O=S(=O)(c1cccnn1)c1n[nH]c(Nc2c3c(cc4c2CCC4)CCC3)n1` [Example 167, N-(1,2,3,5,6,7-hexahydro-s-indacen-4-yl)-3-(pyridazin-3-ylsulfonyl)-1H-1,2,4-triazol-5-amine], for which the IC50 was not above 5 µM.

`CN(C)C1CCN(S(=O)(=O)c2nnc(Nc3c(-c4ccnn4C)ccc4c3CCC4)[nH]2)CC1` [Example 205, N,N-dimethyl-1-((5-((5-(1-methyl-1H-pyrazol-5-yl)-2,3-dihydro-1H-inden-4-yl)amino)-4H-1,2,4-triazol-3-yl)sulfonyl)piperidin-4-amine] yielded an IC50 not above 10 µM.

Consider `CN1CCN(S(=O)(=O)c2nnc(Nc3c4c(cc5c3CCC5)CCC4)[nH]2)CC1=O` [Example 113, 4-((5-((1,2,3,5,6,7-hexahydro-s-indacen-4-yl)amino)-4H-1,2,4-triazol-3-yl)sulfonyl)-1-methylpiperazin-2-one], for which the IC50 is not above 5 µM.

Regarding `CN(C)C1CCN(S(=O)(=O)c2nnc(Nc3c(C4CCOCC4)ccc4c3CCC4)[nH]2)CC1` [Example 209, N,N-dimethyl-1-((5-((5-(tetrahydro-2H-pyran-4-yl)-2,3-dihydro-1H-inden-4-yl)amino)-4H-1,2,4-triazol-3-yl)sulfonyl)piperidin-4-amine], the IC50 is not above 10 µM.

In turn, `CCN(CC)CCCS(=O)(=O)c1nnc(Nc2c(-c3ccccc3)cc(F)c3c2CCC3)[nH]1` [Example 78, 5-((3-(diethylamino)propyl)sulfonyl)-N-(7-fluoro-5-phenyl-2,3-dihydro-1H-inden-4-yl)-4H-1,2,4-triazol-3-amine] had an IC50 not above 10 µM.

`CNS(=O)(=O)c1nnc(Nc2c3c(cc4c2CCC4)CCC3)[nH]1` [Example 371, 5-((1,2,3,5,6,7-hexahydro-s-indacen-4-yl)amino)-N-methyl-4H-1,2,4-triazole-3-sulfonamide] had an IC50 not above 5 µM.

Consider `O=S(=O)(CCCN1CCOCC1)c1nnc(Nc2c3c(cc4c2CCC4)CCC3)[nH]1` [Example 50, N-(1,2,3,5,6,7-hexahydro-s-indacen-4-yl)-5-((3-morpholinopropyl)sulfonyl)-4H-1,2,4-triazol-3-amine], for which the IC50 is not above 5 µM.

`O=S(=O)(CCc1ccccn1)c1nnc(Nc2c3c(cc4c2CCC4)CCC3)[nH]1` [Example 63, N-(1,2,3,5,6,7-hexahydro-s-indacen-4-yl)-3-((2-(pyridin-2-yl)ethyl)sulfonyl)-1H-1,2,4-triazol-5-amine] had an IC50 not above 1 µM.

As to `O=S(=O)(c1ccncc1)c1nnc(Nc2c3c(cc4c2CCC4)CCC3)[nH]1` [Example 171, N-(1,2,3,5,6,7-hexahydro-s-indacen-4-yl)-5-(pyridin-4-ylsulfonyl)-4H-1,2,4-triazol-3-amine], the IC50 is not above 5 µM.

In turn, `CN1CCCC(CS(=O)(=O)c2nnc(Nc3c4c(cc5c3CCC5)CCC4)[nH]2)C1` (centres unmarked) [Example 58, N-(1,2,3,5,6,7-hexahydro-s-indacen-4-yl)-3-(((1-methylpiperidin-3-yl)methyl)sulfonyl)-1H-1,2,4-triazol-5-amine] had an IC50 not above 5 µM.

`COc1cc(-c2ccc3c(c2Nc2nnc(S(=O)(=O)c4ccccc4)[nH]2)CCO3)ccn1` [Example 190, N-(5-(2-methoxypyridin-4-yl)-2,3-dihydrobenzofuran-4-yl)-5-(phenylsulfonyl)-4H-1,2,4-triazol-3-amine] yielded an IC50 not above 5 µM.

`CN(C)CCn1cc(S(=O)(=O)c2nnc(Nc3c4c(cc5c3CCC5)CCC4)[nH]2)cn1` [Example 350, 5-((1-(2-(dimethylamino)ethyl)-1H-pyrazol-4-yl)sulfonyl)-N-(1,2,3,5,6,7-hexahydro-s-indacen-4-yl)-4H-1,2,4-triazol-3-amine] yielded a 50% inhibitory concentration (IC50) not above 1 µM.

`O=S(=O)(NCc1cccnc1)c1nnc(Nc2c3c(cc4c2CCC4)CCC3)[nH]1` [Example 97, 5-((1,2,3,5,6,7-hexahydro-s-indacen-4-yl)amino)-N-(pyridin-3-ylmethyl)-4H-1,2,4-triazole-3-sulfonamide] had an IC50 not above 5 µM.

Take `COc1cc(-c2cc(F)cc(C(C)C)c2Oc2nnc(S(=O)(=O)N3CCC(N(C)C)CC3)[nH]2)ccn1` [Example 253, 1-((5-(4-fluoro-2-isopropyl-6-(2-methoxypyridin-4-yl)phenoxy)-4H-1,2,4-triazol-3-yl)sulfonyl)-N,N-dimethylpiperidin-4-amine]: the IC50 was not above 5 µM.

For `Cn1cc(C#N)c(S(=O)(=O)c2nnc(Nc3c4c(cc5c3CCC5)CCC4)[nH]2)n1` [Example 351, 3-((5-((1,2,3,5,6,7-hexahydro-s-indacen-4-yl)amino)-4H-1,2,4-triazol-3-yl)sulfonyl)-1-methyl-1H-pyrazole-4-carbonitrile], the IC50 is not above 5 µM.

The compound `Cc1cc2c(c(Nc3nnc(S(C)(=O)=O)[nH]3)c1-c1ccnc(OCC3CCCN(C)C3)c1)CCC2` (centres unmarked) [Example 362, N-(6-methyl-5-(2-((1-methylpiperidin-3-yl)methoxy)pyridin-4-yl)-2,3-dihydro-1H-inden-4-yl)-5-(methylsulfonyl)-4H-1,2,4-triazol-3-amine] yielded an IC50 not above 5 µM.

Consider `O=S(=O)(c1nnc(Nc2c3c(cc4c2CCC4)CCC3)[nH]1)N1CCn2cncc2C1` [Example 281, 5-((5,6-dihydroimidazo[1,5-a]pyrazin-7 (8H)-yl)sulfonyl)-N-(1,2,3,5,6,7-hexahydro-s-indacen-4-yl)-4H-1,2,4-triazol-3-amine], for which the IC50 was not above 10 µM.

In turn, `Cc1cc2c(c(Nc3nnc(S(C)(=O)=O)[nH]3)c1-c1ccnc(OC3CCOCC3)c1)CCC2` [Example 364, N-(6-methyl-5-(2-((tetrahydro-2H-pyran-4-yl)oxy)pyridin-4-yl)-2,3-dihydro-1H-inden-4-yl)-5-(methylsulfonyl)-4H-1,2,4-triazol-3-amine] returned a 50% inhibitory concentration (IC50) not above 5 µM.

In the case of `O=S(=O)(c1nnc(Nc2c3c(cc4c2CCC4)CCC3)[nH]1)C1CCOCC1` [Example 157, N-(1,2,3,5,6,7-hexahydro-s-indacen-4-yl)-5-((tetrahydro-2H-pyran-4-yl)sulfonyl)-4H-1,2,4-triazol-3-amine], the IC50 was not above 10 µM.

`CN(C)C1CCC(Oc2cc(-c3ccc4c(c3Nc3nnc(S(C)(=O)=O)[nH]3)CCC4)ccn2)CC1` (centres unmarked) [Example 356, N-(5-(2-((4-(dimethylamino)cyclohexyl)oxy)pyridin-4-yl)-2,3-dihydro-1H-inden-4-yl)-5-(methylsulfonyl)-4H-1,2,4-triazol-3-amine] came in with an IC50 not above 5 µM.

`NC(=O)c1ccc(S(=O)(=O)c2nnc(Nc3c4c(cc5c3CCC5)CCC4)[nH]2)cc1` [Example 327, 4-((5-((1,2,3,5,6,7-hexahydro-s-indacen-4-yl)amino)-4H-1,2,4-triazol-3-yl)sulfonyl)benzamide] displayed an IC50 not above 5 µM.
